“And” between values parts separate entries of the source, which are not always exact repeats. Identical values can stand only once. Like-named read-outs stand apart in the source and are kept apart here.
What was measured:
adrenergic α1A receptor = biological target: T1, adrenergic α1A receptor (Homo sapiens, UniProt P35348); assay: Radioligand binding, adrenergic α1A
T1 sequence (P35348 1-466): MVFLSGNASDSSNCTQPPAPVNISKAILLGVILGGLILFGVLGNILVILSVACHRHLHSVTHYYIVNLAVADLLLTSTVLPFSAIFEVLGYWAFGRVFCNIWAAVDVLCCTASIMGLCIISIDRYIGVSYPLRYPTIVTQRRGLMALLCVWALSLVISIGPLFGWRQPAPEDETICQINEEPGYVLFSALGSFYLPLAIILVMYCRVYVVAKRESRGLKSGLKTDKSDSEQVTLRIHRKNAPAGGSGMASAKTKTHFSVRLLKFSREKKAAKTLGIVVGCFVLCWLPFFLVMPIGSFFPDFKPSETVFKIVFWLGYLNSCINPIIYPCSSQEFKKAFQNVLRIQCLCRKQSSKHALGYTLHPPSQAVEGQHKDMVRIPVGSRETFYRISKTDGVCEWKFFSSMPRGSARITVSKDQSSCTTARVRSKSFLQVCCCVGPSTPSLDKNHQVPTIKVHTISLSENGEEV

adrenergic α1B receptor = biological target: T2, adrenergic α1B receptor (Homo sapiens, UniProt P35368); assay: Radioligand binding, adrenergic α1B
T2 sequence (P35368 1-520): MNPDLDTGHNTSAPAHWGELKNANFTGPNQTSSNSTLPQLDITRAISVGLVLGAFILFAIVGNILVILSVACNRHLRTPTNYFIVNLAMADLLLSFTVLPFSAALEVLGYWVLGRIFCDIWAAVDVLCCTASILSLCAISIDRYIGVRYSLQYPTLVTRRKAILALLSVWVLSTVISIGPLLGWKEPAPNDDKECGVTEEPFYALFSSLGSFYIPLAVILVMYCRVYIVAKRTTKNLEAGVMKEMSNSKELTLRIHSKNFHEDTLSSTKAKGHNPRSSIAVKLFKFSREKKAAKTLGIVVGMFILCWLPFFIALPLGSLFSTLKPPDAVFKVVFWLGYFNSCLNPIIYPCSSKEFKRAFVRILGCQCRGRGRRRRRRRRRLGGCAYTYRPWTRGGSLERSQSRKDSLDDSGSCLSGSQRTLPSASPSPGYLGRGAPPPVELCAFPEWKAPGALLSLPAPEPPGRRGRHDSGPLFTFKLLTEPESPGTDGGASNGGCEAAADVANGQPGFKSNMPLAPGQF

adrenergic α1D receptor = biological target: T3, adrenergic α1D receptor (Homo sapiens, UniProt P25100); assay: Radioligand binding, adrenergic α1D
T3 sequence (P25100 1-572): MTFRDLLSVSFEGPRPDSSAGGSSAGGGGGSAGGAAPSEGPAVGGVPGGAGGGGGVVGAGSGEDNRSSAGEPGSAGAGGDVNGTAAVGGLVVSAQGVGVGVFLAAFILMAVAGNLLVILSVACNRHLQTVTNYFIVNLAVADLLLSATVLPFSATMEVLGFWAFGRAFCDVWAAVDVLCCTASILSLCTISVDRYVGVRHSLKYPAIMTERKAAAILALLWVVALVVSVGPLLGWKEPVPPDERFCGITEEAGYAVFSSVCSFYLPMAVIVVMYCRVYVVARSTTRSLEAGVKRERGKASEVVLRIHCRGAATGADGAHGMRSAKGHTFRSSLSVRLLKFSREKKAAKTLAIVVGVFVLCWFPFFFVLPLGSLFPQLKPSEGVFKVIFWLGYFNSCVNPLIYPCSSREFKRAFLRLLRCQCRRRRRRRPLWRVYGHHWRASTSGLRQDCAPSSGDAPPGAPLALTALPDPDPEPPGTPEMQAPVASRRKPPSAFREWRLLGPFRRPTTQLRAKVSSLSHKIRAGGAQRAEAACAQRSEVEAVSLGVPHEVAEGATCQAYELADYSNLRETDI

adrenergic α2A receptor = biological target: T4, adrenergic α2A receptor (Homo sapiens, UniProt P08913); assay: Radioligand binding, adrenergic α2A
T4 sequence (P08913 1-465): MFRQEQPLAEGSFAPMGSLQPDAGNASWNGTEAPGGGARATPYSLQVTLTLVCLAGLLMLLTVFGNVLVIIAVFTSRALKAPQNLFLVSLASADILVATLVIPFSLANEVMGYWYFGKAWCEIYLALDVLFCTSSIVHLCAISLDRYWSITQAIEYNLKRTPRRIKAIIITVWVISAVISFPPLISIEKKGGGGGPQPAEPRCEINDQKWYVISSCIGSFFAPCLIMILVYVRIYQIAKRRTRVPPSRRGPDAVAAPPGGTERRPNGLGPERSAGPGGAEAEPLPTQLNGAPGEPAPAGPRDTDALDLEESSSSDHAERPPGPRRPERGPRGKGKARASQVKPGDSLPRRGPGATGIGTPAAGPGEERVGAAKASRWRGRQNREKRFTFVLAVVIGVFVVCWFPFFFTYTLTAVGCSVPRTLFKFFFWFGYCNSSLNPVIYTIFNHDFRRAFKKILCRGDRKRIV

mu opioid receptor (MOP) = mu opioid receptor (MOP) (Homo sapiens, UniProt P35372); assay type: binding
nociceptin NOP (ORL1) = nociceptin NOP (ORL1) (Homo sapiens, UniProt P41146); assay: Radioligand binding, nociceptin receptor
MOP [1] = biological target: MOP (Homo sapiens, UniProt P35372); assay type: cell-based
DOP = DOP (Homo sapiens, UniProt P41143); assay type: cell-based
KOP = KOP (Homo sapiens, UniProt P41145); assay: cell-based; assay type: cell-based
Sprague-Dawley rats [2] = conditions: rat, in vivo, iv
MOP [3] = conditions: read-out: EC50 at MOP; other study ref 17; cited from earlier work
adrenergic α2B receptor = biological target: T5, adrenergic α2B receptor (Homo sapiens, UniProt P18089); assay type: binding
T5 sequence (P18089 1-450): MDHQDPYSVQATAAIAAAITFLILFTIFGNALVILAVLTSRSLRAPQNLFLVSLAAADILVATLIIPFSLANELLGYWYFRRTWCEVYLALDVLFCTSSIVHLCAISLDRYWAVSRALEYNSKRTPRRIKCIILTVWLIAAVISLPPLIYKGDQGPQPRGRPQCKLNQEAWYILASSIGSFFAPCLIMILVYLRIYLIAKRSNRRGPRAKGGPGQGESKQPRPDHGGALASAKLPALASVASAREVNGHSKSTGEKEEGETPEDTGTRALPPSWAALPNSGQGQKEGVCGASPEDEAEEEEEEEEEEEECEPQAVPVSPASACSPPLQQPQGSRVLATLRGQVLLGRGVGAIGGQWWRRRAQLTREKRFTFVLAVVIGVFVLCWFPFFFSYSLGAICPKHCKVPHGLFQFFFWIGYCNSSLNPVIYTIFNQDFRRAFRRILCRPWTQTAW

[4] = biological target: delta opioid receptor (DOP) (Homo sapiens, UniProt P41143); assay: Radioligand binding, delta opioid receptor
α1A adrenergic receptor = biological target: T6, α1A adrenergic receptor (Homo sapiens, UniProt P35348); assay type: cell-based
T6 sequence (P35348 1-466): T1 sequence (P35348 1-466)

α1B adrenergic receptor = biological target: T7, α1B adrenergic receptor (Homo sapiens, UniProt P35368); assay type: cell-based
T7 sequence (P35368 1-520): T2 sequence (P35368 1-520)

α1D adrenergic receptor = biological target: T8, α1D adrenergic receptor (Homo sapiens, UniProt P25100); assay type: cell-based
T8 sequence (P25100 1-572): T3 sequence (P25100 1-572)

α2C adrenergic receptor = biological target: T9, α2C adrenergic receptor (Homo sapiens, UniProt P18825); assay type: cell-based
T9 sequence (P18825 1-462): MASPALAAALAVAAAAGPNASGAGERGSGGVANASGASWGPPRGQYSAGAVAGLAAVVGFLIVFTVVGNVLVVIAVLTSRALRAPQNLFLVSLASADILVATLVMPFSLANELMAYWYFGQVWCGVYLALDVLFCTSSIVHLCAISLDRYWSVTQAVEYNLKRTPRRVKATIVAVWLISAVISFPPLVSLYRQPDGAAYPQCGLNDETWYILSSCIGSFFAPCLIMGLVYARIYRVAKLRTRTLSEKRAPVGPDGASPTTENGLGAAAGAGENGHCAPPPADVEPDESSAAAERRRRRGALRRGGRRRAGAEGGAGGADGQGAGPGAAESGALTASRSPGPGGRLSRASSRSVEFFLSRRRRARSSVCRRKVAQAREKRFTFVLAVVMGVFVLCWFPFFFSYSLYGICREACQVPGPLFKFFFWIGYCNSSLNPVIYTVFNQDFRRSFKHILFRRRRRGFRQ

Sprague-Dawley rats [5] = conditions: rat, in vivo, iv; remark: listed apart in the source
rats = conditions: Sprague-Dawley, rat, in vivo
[6] = tested on: human opioid receptors (MOP); conditions: BRET assay; in words ref 14; cited from earlier work
guinea pig ileum = conditions: in words ref 15; cited from earlier work

MOP (Homo sapiens, UniProt P35372), sequence (P35372 whole entry): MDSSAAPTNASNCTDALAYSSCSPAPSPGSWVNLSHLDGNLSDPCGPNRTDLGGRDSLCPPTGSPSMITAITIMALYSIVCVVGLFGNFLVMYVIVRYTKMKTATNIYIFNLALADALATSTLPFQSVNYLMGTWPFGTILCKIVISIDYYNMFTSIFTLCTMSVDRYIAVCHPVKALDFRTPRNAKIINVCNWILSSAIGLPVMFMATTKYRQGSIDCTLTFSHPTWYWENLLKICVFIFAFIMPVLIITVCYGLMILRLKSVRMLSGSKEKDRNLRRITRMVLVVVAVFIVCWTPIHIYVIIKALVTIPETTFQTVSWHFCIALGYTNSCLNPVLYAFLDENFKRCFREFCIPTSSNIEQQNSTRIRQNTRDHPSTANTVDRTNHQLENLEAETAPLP
mu opioid receptor (MOP), sequence (P35372 whole entry): as above
KOP, sequence (P41145 whole entry): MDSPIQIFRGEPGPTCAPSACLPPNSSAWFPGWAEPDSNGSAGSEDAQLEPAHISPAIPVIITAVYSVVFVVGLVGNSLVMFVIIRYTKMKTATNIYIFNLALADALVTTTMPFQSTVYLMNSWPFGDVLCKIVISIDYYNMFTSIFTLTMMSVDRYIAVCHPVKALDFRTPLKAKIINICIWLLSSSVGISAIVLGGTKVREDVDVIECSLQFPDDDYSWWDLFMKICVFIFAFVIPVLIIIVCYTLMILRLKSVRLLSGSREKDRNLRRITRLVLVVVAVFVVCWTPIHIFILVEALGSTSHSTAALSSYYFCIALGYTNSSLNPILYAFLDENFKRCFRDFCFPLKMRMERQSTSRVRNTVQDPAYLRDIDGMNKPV
delta opioid receptor (DOP), sequence (P41143 whole entry): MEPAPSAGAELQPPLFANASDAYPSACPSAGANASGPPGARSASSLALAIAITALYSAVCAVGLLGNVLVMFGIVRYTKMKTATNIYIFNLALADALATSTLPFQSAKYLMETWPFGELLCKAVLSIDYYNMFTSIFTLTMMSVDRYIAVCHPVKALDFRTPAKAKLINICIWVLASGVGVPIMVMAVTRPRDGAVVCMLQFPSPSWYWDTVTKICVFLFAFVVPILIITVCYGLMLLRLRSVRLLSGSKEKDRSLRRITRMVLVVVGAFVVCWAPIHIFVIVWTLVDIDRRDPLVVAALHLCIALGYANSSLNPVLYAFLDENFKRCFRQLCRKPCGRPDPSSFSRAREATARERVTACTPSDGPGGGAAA
nociceptin NOP (ORL1), sequence (P41146 whole entry): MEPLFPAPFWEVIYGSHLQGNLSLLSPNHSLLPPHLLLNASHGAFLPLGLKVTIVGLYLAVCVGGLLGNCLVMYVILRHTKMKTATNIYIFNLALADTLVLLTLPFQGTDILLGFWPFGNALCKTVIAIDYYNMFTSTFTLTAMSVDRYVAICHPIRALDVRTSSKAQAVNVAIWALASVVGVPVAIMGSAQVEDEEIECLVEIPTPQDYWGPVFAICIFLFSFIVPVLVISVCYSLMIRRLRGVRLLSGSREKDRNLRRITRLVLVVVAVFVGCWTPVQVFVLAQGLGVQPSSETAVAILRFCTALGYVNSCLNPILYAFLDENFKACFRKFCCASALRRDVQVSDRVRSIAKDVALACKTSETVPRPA
DOP, sequence (P41143 whole entry): as the sequence (P41143 whole entry) above

| SMILES | percent displacement of bound radioligand, adrenergic α1A (adrenergic α1A receptor; 100 nM test compound) | percent displacement of bound radioligand, adrenergic α1A (adrenergic α1A receptor; 10,000 nM test compound) | percent displacement of bound radioligand, adrenergic α1B (adrenergic α1B receptor; 100 nM test compound) | percent displacement of bound radioligand, adrenergic α1B (adrenergic α1B receptor; 10,000 nM test compound) | percent displacement of bound radioligand, adrenergic α1D (adrenergic α1D receptor; 100 nM test compound) | percent displacement of bound radioligand, adrenergic α1D (adrenergic α1D receptor; 10,000 nM test compound) | percent displacement of bound radioligand, adrenergic a2A (adrenergic α2A receptor; 100 nM test compound) | percent displacement of bound radioligand, adrenergic a2A (adrenergic α2A receptor; 10,000 nM test compound) | percent displacement of bound radioligand, nociceptin NOP (ORL1) (nociceptin NOP (ORL1); 100 nM test compound) | percent displacement of bound radioligand, nociceptin NOP (ORL1) (nociceptin NOP (ORL1); 10,000 nM test compound) | functional effect at MOP (MOP [1]) | functional effect at KOP (KOP) | percent displacement of bound radioligand, adrenergic α2B (adrenergic α2B receptor; 100 nM test compound) | percent displacement of bound radioligand, adrenergic α2B (adrenergic α2B receptor; 10,000 nM test compound) | percent displacement of bound radioligand, opioid δ ([4]; 10,000 nM test compound) | percent displacement of bound radioligand, opioid μ (mu opioid receptor (MOP); 100 nM test compound) | percent displacement of bound radioligand, opioid μ (mu opioid receptor (MOP); 10,000 nM test compound) | other results |
| --- | --- | --- | --- | --- | --- | --- | --- | --- | --- | --- | --- | --- | --- | --- | --- | --- | --- | --- |
| CC[C@@H]1CN2CC[C@@]3(O)C(=Nc4cccc(OC)c43)[C@@H]2C[C@@H]1/C(=C\OC)C(=O)OC [7-hydroxymitragynine] | 10.1% | 3.5% | 5.9% | −4.8% | −1.9% | 13.5% | −6.7% | −5.4% | −1.6% | 3.4% | full agonist | competitive antagonist |  |  |  |  |  | percent displacement of bound radioligand, opioid μ (mu opioid receptor (MOP)): 81.8% and 100.7%; functional effect at DOP (DOP): competitive antagonist; Kb (KOP): 0.115 µM; effect of naltrexone on antinociception (Sprague-Dawley rats [2]; 0.1 mg/kg): reversed; EC50 (MOP [3]): 0.053 ± 0.004 µM |
| CC[C@@H]1CN2CCc3c([nH]c4cccc(O)c34)[C@@H]2C[C@@H]1/C(=C\OC)C(=O)OC [9-hydroxycorynantheidine] | 16.4% | 62.3% | −4.4% | 29.0% | 12.4% | 66.3% | −10.2% | 20.0% | −2.9% | 28.9% |  |  | −5.7% | 14.6% | 25.3% | 29.3% | 95.4% |  |
| CC[C@@H]1CN2CCc3c([nH]c4ccccc34)[C@@H]2C[C@@H]1/C(=C\OC)C(=O)OC [corynantheidine] | 45.9% | 100.5% | 19.6% | 91.0% | 73.5% | 101.2% | 27.2% | 95.1% | −1.3% | 27.0% |  |  | 8.5% | 79.9% | 31.4% | 39.6% | 96.8% | fold higher affinity at the α−1D receptor than mitragynine (adrenergic α1D receptor; ratio of Ki versus mitragynine): 131 fold; percent displacement of bound radioligand, opioid δ ([4]; 100 nM test compound): 8.6% |
| CC[C@@H]1CN2CCc3c([nH]c4cccc(OC)c34)[C@@H]2C[C@@H]1/C(=C\OC)C(=O)OC [mitragynine] |  |  | −12.5% |  |  |  |  |  |  |  | partial agonists |  |  |  |  |  |  | agonist effect at α1A (α1A adrenergic receptor): partial agonist; antagonist effect at α−1A (α1A adrenergic receptor): competitive antagonist effects; antagonist effect at α−1B (α1B adrenergic receptor): competitive antagonist effects; agonist effect at α1D (α1D adrenergic receptor): partial agonist; antagonist effect at α−1D (α1D adrenergic receptor): competitive antagonist effects; antagonist effect at α−2C (α2C adrenergic receptor): competitive antagonist effects |
| CC[C@@H]1CN2CCc3c([nH]c4cccc(OC)c34)[C@H]2C[C@@H]1/C(=C\OC)C(=O)OC [speciociliatine] |  |  |  |  |  |  |  |  | −14.9% |  | partial agonists | no agonist or antagonist effects |  |  |  |  |  | antinociceptive effects in hot plate test (Sprague-Dawley rats [2]; 10 mg/kg): had antinociceptive effects; change in body temperature (hypothermia) (Sprague-Dawley rats [5]): produced hypothermia; lethality (rats dead / rats tested) (rats): 5/21; agonist / antagonist activity at human opioid receptors [6]: no measurable agonist activity; inhibition of electrically induced twitch contraction (guinea pig ileum): maximum inhibition of electrically induced twitch contraction of guinea pig ileum similar to morphine |

Reference: article PMC7676998 (Journal of medicinal chemistry, 2019)
